Measured values: patent US7186743B2, “Substituted pyrazolyl compounds for the treatment of inflammation” (Pharmacia Corporation, priority 2001, dated 2007)
pIC50: −log10 of the molar value. Structures can show the parent of a compound that is named as a salt. Where two headings read alike, the source gives them in different places.

Biological target: T1, IKK2 (Homo sapiens, UniProt O14920)
T1 construct: made in house; host or cells: insect cells (baculovirus, pFastBac; SF9)
T1 sequence (O14920 1-756): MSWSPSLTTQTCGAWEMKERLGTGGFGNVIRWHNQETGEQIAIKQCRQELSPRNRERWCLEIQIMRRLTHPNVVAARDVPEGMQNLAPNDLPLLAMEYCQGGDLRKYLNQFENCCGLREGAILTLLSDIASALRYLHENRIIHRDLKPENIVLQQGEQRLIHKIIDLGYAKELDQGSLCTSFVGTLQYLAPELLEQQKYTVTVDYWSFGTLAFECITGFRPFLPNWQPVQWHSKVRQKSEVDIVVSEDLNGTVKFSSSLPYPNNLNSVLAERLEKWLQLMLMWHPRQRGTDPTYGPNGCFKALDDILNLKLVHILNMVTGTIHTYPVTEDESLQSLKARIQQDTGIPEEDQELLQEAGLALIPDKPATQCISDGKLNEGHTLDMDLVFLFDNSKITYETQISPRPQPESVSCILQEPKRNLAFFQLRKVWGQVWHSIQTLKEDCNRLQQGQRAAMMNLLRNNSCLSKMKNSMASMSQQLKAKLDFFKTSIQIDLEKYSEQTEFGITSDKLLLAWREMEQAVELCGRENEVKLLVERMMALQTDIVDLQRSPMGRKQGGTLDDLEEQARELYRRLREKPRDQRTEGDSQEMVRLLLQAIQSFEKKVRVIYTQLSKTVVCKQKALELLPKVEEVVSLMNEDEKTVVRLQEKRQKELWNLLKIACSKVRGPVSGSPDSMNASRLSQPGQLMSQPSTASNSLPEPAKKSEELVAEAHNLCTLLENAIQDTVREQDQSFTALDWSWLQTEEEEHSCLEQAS
Assay: IKKβ Resin Enzyme Assay (IKK2 resin)
Type: biochemical
Excerpt: cDNAs of human IKK1 and IKK2 were amplified by reverse transcriptase-polymerase chain reaction from human placental RNA (Clonetech). hIKK1 was subcloned into pFastBac HTa (Life Technologies) and expressed as N-terminal His6-tagged fusion protein. The hIKK2 cDNA was amplified using a reverse oligonucleotide primer which incorporated the peptide sequence for a FLAG-epitope tag at the C-terminus of the IKK2 coding region ([…]). The hIKK2:FLAG cDNA was subcloned into the baculovirus vector pFastBac. The rhIKK2 ([…]) mutant was constructed in the same vector used for wild type rhIKK2 using a QuikChange™ mutagenesis kit (Stratagene). Viral stocks of each construct were used to infect insect cells grown in 40 L suspension culture. […] Cell lysates were stored at −80° C. until purification of the recombinant proteins was undertaken as described below.
A 10-liter culture of baculovirus-expressing IKK2 tagged with FLAG peptide was centrifuged and the cell pellet (MOI=0.1 and I=72 hrs) was re-suspended in buffer A. These cells were microfluidized, and centrifuged at 100,000×g for 45 min. Supernatant was passed over a G-25 column equilibrated with Buffer A. Protein peak was collected and incubated with anti-FLAG affinity resin on a rotator overnight in buffer B. The resin was washed in batch with 10–15 bed volumes of buffer C. Washed resin was poured into a column and rhIKK2 homodimer was eluted using 5 bed volumes of buffer B containing FLAG peptide. 5 mM DTT, 0.1% NP-40 and BSA (concentrated to 0.1% in final amount) was added to the eluted enzyme before concentrating in using an Amicon membrane with a molecular weight cut-off of 30 kDa. Enzyme was aliquoted and stored at −80° C.
IKKβ kinase activity was measured using a biotinylated IκBα peptide ([…]32-Gly-Leu-Asp-Ser36-Met-Lys-Asp-Glu-Glu) (American Peptide Co.). […] ATP (Amersham) (about 1×10^5 cpm), 1 μM ATP (Sigma), 1 mM DTT (Sigma), 2 mM MgCl2 (Sigma), 2 mM MnCl2 (Sigma), 10 mM NaF (Sigma), 25 mM Hepes (Sigma) buffer, pH 7.6 and 20 μl enzyme solution and 10 ul inhibitor in a final volume of 50 μl. After incubation at 25° C. for 30 min, 150 μl resin (Dowex anion-exchange resin AG1X8 200–400 mesh) in 900 mM formate, pH 3.0 was added to each well to stop the reaction. Resin was allowed to settle for one hour and 50 ul of supernatant was removed to a Micolite-2 flat bottom plate (Dynex). 150 μl of scintillation fluid (Microscint 40) (Packard) was added to each well. Incorporation of [γ-^33P] ATP was measured using a Top-Count NXT (Packard).

[1] = Table 4, read-out: IKK2 Resin IC50
[2] = Table 11, read-out: IKK2 Resin IC50
[3] = Table 6, read-out: IKK2 Resin IC 50
[4] = Table 14, read-out: IKK2 Resin IC50
[5] = Table 2, read-out: IKK Resin IC50

## NC(=O)c1nn(-c2ccc3c(c2)OCO3)c2c1CCc1ccc(NC(=O)c3ccc(Cl)cc3Cl)cc1-2 [Example 195, 1-(1,3-benzodioxol-5-yl)-8-[(2,4-dichlorobenzoyl)amino]-4,5-dihydro-1H-benzo[g]indazole-3-carboxamide]
[1]
  pIC50: ≥ 6.00

## NC(=O)c1nn(-c2ccc3c(c2)OCO3)c2c1CCc1ccc(NC(=O)c3ccccc3Cl)cc1-2 [Example 165, 1-(1,3-benzodioxol-5-yl)-8-[(2-chlorobenzoyl)amino]-4,5-dihydro-1H-benzo[g]indazole-3-carboxamide]
[1]
  pIC50: ≥ 6.00

## CC(C)(O)/C=C/c1ccc(-n2nc(C(N)=O)c3c2-c2cc(NC(=O)c4ccccc4Cl)ccc2CC3)cc1 [Example 289, 8-[(2-chlorobenzoyl)amino]-1-{4-[(1E)-3-hydroxy-3-methylbut-1-enyl]phenyl}-4,5-dihydro-1H-benzo[g]indazole-3-carboxamide]
[2]
  pIC50: ≥ 6.00

## NC(=O)c1nn(-c2ccc(/C=C/C(=O)O)cc2)c2c1CCc1ccc(NC(=O)c3ccccc3Cl)cc1-2 [Example 291, (2E)-3-(4-{3-(aminocarbonyl)-8-[(2-chlorobenzoyl)amino]-4,5-dihydro-1H-benzo[g]indazol-1-yl}phenyl)prop-2-enoic acid]
[2]
  pIC50: ≥ 6.00

## Cc1ccc([N+](=O)[O-])c(C(=O)Nc2ccc3c(c2)-c2c(c(C(N)=O)nn2-c2ccc(S(C)(=O)=O)cc2)CC3)c1 [Example 153]
Table 3, read-out: IKK Resin IC50
  pIC50: ≥ 6.00

## CC(C)(C)NCC(=O)Nc1ccc2c(c1)-c1c(c(C(N)=O)nn1-c1ccc3c(c1)OCO3)CC2 [Example 450, 1-(1,3-benzodioxol-5-yl)-8-{[N-(tert-butyl)glycyl]amino}-4,5-dihydro-1H-benzo[g]indazole-3-carboxamide]
Table 23, read-out: IKK2 Resin IC50
  pIC50: ≥ 6.00

## NC(=O)c1nn(-c2ccc(F)cc2)c2c1CCc1ccc(NC(=O)c3ccc(N)cc3Cl)cc1-2 [Example 232, 8-[(4-amino-2-chlorobenzoyl)amino]-1-(4-fluorophenyl)-4,5-dihydro-1H-benzo[g]indazole-3-carboxamide]
[3]
  pIC50: ≥ 6.00

## NC(=O)c1nn(-c2ccc(F)cc2)c2c1CCc1ccc(NC(=O)c3ccccc3Cl)cc1-2 [Example 230, 8-[(2-chlorobenzoyl)amino]-1-(4-fluorophenyl)-4,5-dihydro-1H-benzo[g]indazole-3-carboxamide]
[3]
  pIC50: ≥ 6.00

## NC(=O)c1nn(-c2ccc3c(c2)OCO3)c2c1CCc1ccc(NC(=O)c3ccccc3Br)cc1-2 [Example 177, 1-(1,3-benzodioxol-5-yl)-8-[(2-bromobenzoyl)amino]-4,5-dihydro-1H-benzo[g]indazole-3-carboxamide]
[1]
  pIC50: ≥ 6.00

## NC(=O)c1nn(-c2ccc(N3CCOCC3)cc2)c2c1CCc1ccc(NC(=O)c3cccnc3Cl)cc1-2 [Example 288, 8-{[(2-chloropyridin-3-yl)carbonyl]amino}-1-(4-morpholin-4-ylphenyl)-4,5-dihydro-1H-benzo[g]indazole-3-carboxamide]
read-out: IKK-2 resin IC50
  pIC50: 5.00 to 6.00

## NC(=O)c1nn(-c2ccc3c(c2)OCO3)c2c1CCc1ccc(NC(=O)c3ccc(O)nc3)cc1-2 [Example 186, 1-(1,3-benzodioxol-5-yl)-8-{[(6-hydroxypyridin-3-yl)carbonyl]amino}-4,5-dihydro-1H-benzo[g]indazole-3-carboxamide]
[1]
  pIC50: ≥ 6.00

## CCS(=O)(=O)c1ccc(-n2nc(C(N)=O)c3c2-c2cc(NC(=O)c4cccnc4Cl)ccc2CC3)cc1 [Example 396, 8-{[(2-chloropyridin-3-yl)carbonyl]amino}-1-[4-(ethylsulfonyl)phenyl]-4,5-dihydro-1H-benzo[g]indazole-3-carboxamide]
Table 18, read-out: IKK2 Resin IC50
  pIC50: ≥ 6.00

## NC(=O)c1nn(-c2ccc(N)cc2)c2c1CCc1ccc(NC(=O)c3ccccc3Cl)cc1-2 [Example 370, 1-(4-aminophenyl)-8-[(2-chlorobenzoyl)amino]-4,5-dihydro-1H-benzo[g]indazole-3-carboxamide]
Table 15, read-out: IKK2 Resin IC50
  pIC50: ≥ 6.00

## NC(=O)c1nn(-c2ccc(O)cc2)c2c1CCc1ccc(NC(=O)c3cccnc3Cl)cc1-2 [Example 263, 8-{[(2-chloropyridin-3-yl)carbonyl]amino}-1-(4-hydroxyphenyl)-4,5-dihydro-1H-benzo[g]indazole-3-carboxamide]
Table 8, read-out: IKK2 Resin IC50
  pIC50: ≥ 6.00

## CN(C)CCSc1ccc(Cl)c(C(=O)Nc2ccc3c(c2)-c2c(c(C(N)=O)nn2-c2ccc4c(c2)OCO4)CC3)n1 [Example 218, 1-(1,3-benzodioxol-5-yl)-8-{[(3-chloro-6-{[2-(dimethylamino)ethyl]thio}pyridin-2-yl)carbonyl]amino}-4,5-dihydro-1H-benzo[g]indazole-3-carboxamide]
Table 5, read-out: IKK2 Resin Avg. IC50
  pIC50: ≥ 6.00

## NC(=O)c1nn(-c2ccccc2)c2c1CCc1ccc(NC(=O)c3ccccc3Cl)cc1-2 [Example 328, 8-[(2-chlorobenzoyl)amino]-1-phenyl-4,5-dihydro-1H-benzo[g]indazole-3-carboxamide]
[4]
  pIC50: ≥ 6.00

## C#CCN(CC#C)S(=O)(=O)c1ccc(-n2nc(C(N)=O)c3c2-c2cc(N)ccc2CC3)cc1 [Example 425, 8-amino-1-{4-[(diprop-2-ynylamino)sulfonyl]phenyl}-4,5-dihydro-1H-benzo[g]indazole-3-carboxamide]
Table 21, read-out: IKK2 Resin IC50
  pIC50: ≥ 6.00

## CN(C)CCSc1ccc(Cl)c(C(=O)Nc2ccc3c(c2)-c2c(c(C(N)=O)nn2-c2ccc(F)cc2)CC3)n1 [Example 257, 8-{[(3-chloro-6-{[2-(dimethylamino)ethyl]thio}pyridin-2-yl)carbonyl]amino}-1-(4-fluorophenyl)-4,5-dihydro-1H-benzo[g]indazole-3-carboxamide]
Table 7, read-out: IKK2 Resin IC50
  pIC50: ≥ 6.00

## COc1ccc(C(=O)Nc2ccc3c(c2)-c2c(c(C(N)=O)nn2-c2ccc4c(c2)OCO4)CC3)c(Cl)c1 [Example 182, 1-(1,3-benzodioxol-5-yl)-8-[(2-chloro-4-methoxybenzoyl)amino]-4,5-dihydro-1H-benzo[g]indazole-3-carboxamide]
[1]
  pIC50: ≥ 6.00

## NC(=O)c1nn(-c2ccc(S(=O)(=O)C(F)(F)F)cc2)c2c1CCc1ccc(NC(=O)c3ccncc3Cl)cc1-2 [Example 358, 8-[(3-chloroisonicotinoyl)amino]-1-{4-[(trifluoromethyl)sulfonyl]phenyl}-4,5-dihydro-1H-benzo[g]indazole-3-carboxamide hydrochloride]
[4]
  pIC50: ≥ 6.00

## CS(=O)(=O)c1ccc(-n2nc(C(N)=O)c3c2-c2cc(NC(=O)c4ccccc4Cl)ccc2CC3)cc1 [Example 95, 8-[(2-chlorobenzoyl)animo]-1-[4-(methylsulfonyl)phenyl]-4,5-dihydro-1H-benzo[g]indazole-3-carboxamide]
[5]
  pIC50: ≥ 6.00

## CS(=O)(=O)c1ccc(-n2nc(C(N)=O)c3c2-c2cc(NC(=O)c4ccncc4)ccc2CC3)cc1 [Example 110, 8-(isonicotinoylamino)-1-[4-(methylsulfonyl)phenyl]-4,5-dihydro-1H-benzo[g]indazole-3-carboxamide]
[5]
  pIC50: ≥ 6.00
